This passage reports IC50 results from US9758517B2, “Histone demethylase inhibitors” (Quanticel Pharmaceuticals, Inc., priority 2014, dated 2017).

The experiment concerns the target JMJD2C (Homo sapiens (Human), UniProt Q9H3R0). The experiment can be described thus: In vitro enzyme inhibition assay, JMJD2C demethylase activity (TR-FRET). It is filed as biochemical. The conditions noted are these: 0.3 nM JMJD2C, 300 nM H3K9me3-biotin peptide, 2 μM alpha-ketoglutaric acid, 30 minutes at room temperature. The procedure: This assay determines the ability of a test compound to inhibit JMJD2C demethylase activity. Baculovirus expressed JMJD2C (GenBank Accession #BC143571, AA 2-372) was purchased from BPS Bioscience (Cat#50105).
The ability of test compounds to inhibit the activity of JMJD2C was determined in 384-well plate format under the following reaction conditions: 0.3 nM JMJD2C, 300 nM H3K9me3-biotin labeled peptide (Anaspec cat #64360), 2 μM alpha-ketoglutaric acid in assay buffer of 50 mM HEPES, pH7.3, 0.005% Brij35, 0.5 mM TCEP, 0.2 mg/ml BSA, 50 μM sodium L-ascorbate, and 2 μM ammonium iron(II) sulfate. Reaction product was determined quantitatively by TR-FRET after the addition of detection reagent Phycolink Streptavidin-allophycocyanin (Prozyme) and Europium-anti-di-methylated histone H3 lysine 9 (H3K9me2) antibody (PerkinElmer) in the presence of 5 mM EDTA in LANCE detection buffer (PerkinElmer) at a final concentration of 50 nM and 1 nM, respectively.
The assay reaction was initiated by the following: 2 μL of the mixture of 900 nM H3K9me3-biotin labeled peptide and 6 μM alpha-ketoglutaric acid with 2 μL of 11-point serial diluted inhibitor in 3% DMSO were added to each well of the plate, followed by the addition of 2 μl of 0.9 nM JMJD2C to initiate the reaction. The reaction mixture was incubated at room temperature for 30 minutes, and terminated by the addition of 6 μL of 5 mM EDTA in LANCE detection buffer containing 100 nM Phycolink Streptavidin-allophycocyanin and 2 nM Europium-anti-H3K9me2 antibody. Plates were read by EnVisionMultilabel Reader in TR-FRET mode (excitation at 320 nm, emission at 615 nm and 665 nm) after 1 hour incubation at room temperature. A ratio was calculated (665/615) for each well and fitted to determine inhibition constant (IC50).

Chain of JMJD2C (Q9H3R0 2-372): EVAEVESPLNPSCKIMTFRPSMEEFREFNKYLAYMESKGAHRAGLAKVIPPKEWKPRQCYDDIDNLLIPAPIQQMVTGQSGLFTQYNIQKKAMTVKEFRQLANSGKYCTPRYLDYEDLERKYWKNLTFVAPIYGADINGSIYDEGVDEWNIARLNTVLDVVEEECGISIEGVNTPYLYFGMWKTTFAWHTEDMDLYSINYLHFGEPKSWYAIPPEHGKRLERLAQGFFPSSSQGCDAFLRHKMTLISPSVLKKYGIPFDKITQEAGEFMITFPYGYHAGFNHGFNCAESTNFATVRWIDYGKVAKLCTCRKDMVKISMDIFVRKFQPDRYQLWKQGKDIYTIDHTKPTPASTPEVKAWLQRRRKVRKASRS

`COc1ccc2c(-c3cc4nccc(C(=O)O)c4[nH]3)n(C)nc2c1` [Example 1, 2-(6-Methoxy-2-methyl-2H-indazol-3-yl)-1H-pyrrolo[3,2-b]pyridine-7-carboxylic acid] showed a 50% inhibitory concentration (IC50) of 0.1 to 1 µM.

In turn, `COc1ccc2nn(C)c(-c3cc4nccc(C(=O)O)c4[nH]3)c2c1` [Example 2, 2-(5-Methoxy-2-methyl-2H-indazol-3-yl)-1H-pyrrolo[3,2-b]pyridine-7-carboxylic acid] yielded an IC50 of 0.1 to 1 µM.

`Cn1nc2cc(Cl)ccc2c1-c1cc2nccc(C(=O)O)c2[nH]1` [Example 3, 2-(6-Chloro-2-methyl-2H-indazol-3-yl)-1H-pyrrolo[3,2-b]pyridine-7-carboxylic acid]: the IC50 was 0.1 to 1 µM.

On to `Cn1nc2ccc(C(F)(F)F)cc2c1-c1cc2nccc(C(=O)O)c2[nH]1` [Example 4, 2-[2-Methyl-5-(trifluoromethyl)-2H-indazol-3-yl]-1H-pyrrolo[3,2-b]pyridine-7-carboxylic acid], for which the IC50 was in the range of 1 to 10 µM.

Molecule `Cn1nc2ccc(OC(F)(F)F)cc2c1-c1cc2nccc(C(=O)O)c2[nH]1` [Example 5, 2-[2-Methyl-5-(trifluoromethoxy)-2H-indazol-3-yl]-1H-pyrrolo[3,2-b]pyridine-7-carboxylic acid] had a concentration for half-maximal inhibition (IC50) of 1 to 10 µM.

`Cn1nc2ccc(C3CC3)cc2c1-c1cc2nccc(C(=O)O)c2[nH]1` [Example 6, 2-(5-Cyclopropyl-2-methyl-2H-indazol-3-yl)-1H-pyrrolo[3,2-b]pyridine-7-carboxylic acid] had an IC50 of 0.1 to 1 µM.

As for `Cn1nc2ccc(Cl)cc2c1-c1cc2nccc(C(=O)O)c2[nH]1` [Example 7, 2-(5-Chloro-2-methyl-2H-indazol-3-yl)-1H-pyrrolo[3,2-b]pyridine-7-carboxylic acid], the IC50 lay within 1 to 10 µM.

In turn, `CCn1nc2cc(Cl)ccc2c1-c1cc2nccc(C(=O)O)c2[nH]1` [Example 8, 2-(6-Chloro-2-ethyl-2H-indazol-3-yl)-1H-pyrrolo[3,2-b]pyridine-7-carboxylic acid] yielded a half-maximal inhibitory concentration (IC50) of 1 to 10 µM.

`O=C(O)c1ccnc2cc(-c3c4ccc(Cl)cc4nn3CC3CC3)[nH]c12` [Example 9, 2-[6-Chloro-2-(cyclopropylmethyl)-2H-indazol-3-yl]-1H-pyrrolo[3,2-b]pyridine-7-carboxylic acid]: the IC50 lay within 1 to 10 µM.

In the case of `O=C(O)c1ccnc2cc(-c3c4cc(Cl)ccc4nn3CCN3CCCC3)[nH]c12` [Example 10, 2-{5-Chloro-2-[2-(pyrrolidin-1-yl)ethyl]-2H-indazol-3-yl}-1H-pyrrolo[3,2-b]pyridine-7-carboxylic acid], the IC50 was 0.1 to 1 µM.

`CN(c1ccccc1)c1ccc2c(-c3cc4nccc(C(=O)O)c4[nH]3)n(C)nc2c1` [Example 11, 2-{2-methyl-6-[methyl(phenyl)amino]-2H-indazol-3-yl}-1H-pyrrolo[3,2-b]pyridine-7-carboxylic acid]: the IC50 lay within 0.1 to 1 µM.

As for `CN(c1ccccc1)c1cccc2c(-c3cc4nccc(C(=O)O)c4[nH]3)n(C)nc12` [Example 12, 2-{2-methyl-7-[methyl(phenyl)amino]-2H-indazol-3-yl}-1H-pyrrolo[3,2-b]pyridine-7-carboxylic acid], the IC50 lay in the range of 1 to 10 µM.

With `Cn1nc(-c2cc3nccc(C(=O)O)c3[nH]2)c2ccccc21` [Example 13, 2-(1-methyl-1H-indazol-3-yl)-1H-pyrrolo[3,2-b]pyridine-7-carboxylic acid], the 50% inhibitory concentration (IC50) was in the range of 0.1 to 1 µM.

For the molecule `Cn1nc(-c2cc3nccc(C(=O)O)c3[nH]2)c2cc(F)ccc21` [Example 14, 2-(5-fluoro-1-methyl-1H-indazol-3-yl)-1H-pyrrolo[3,2-b]pyridine-7-carboxylic acid], the IC50 lay within 0.1 to 1 µM.

`Cn1nc(-c2cc3nccc(C(=O)O)c3[nH]2)c2ccc(Cl)cc21` [Example 15, 2-(6-chloro-1-methyl-1H-indazol-3-yl)-1H-pyrrolo[3,2-b]pyridine-7-carboxylic acid] yielded a half-maximal inhibitory concentration (IC50) of 0.1 to 1 µM.

Regarding `Cn1nc(-c2cc3nccc(C(=O)O)c3[nH]2)c2ccc(F)cc21` [Example 16, 2-(6-fluoro-1-methyl-1H-indazol-3-yl)-1H-pyrrolo[3,2-b]pyridine-7-carboxylic acid], the IC50 lay in the range of 0.1 to 1 µM.

The molecule `CCn1nc(-c2cc3nccc(C(=O)O)c3[nH]2)c2ccc(Cl)cc21` [Example 17, 2-(6-chloro-1-ethyl-1H-indazol-3-yl)-1H-pyrrolo[3,2-b]pyridine-7-carboxylic acid] gave a half-maximal inhibitory concentration (IC50) of 1 to 10 µM.

In turn, `O=C(O)c1ccnc2cc(-c3nn(CC4CC4)c4cc(Cl)ccc34)[nH]c12` [Example 18, 2-[6-chloro-1-(cyclopropylmethyl)-1H-indazol-3-yl]-1H-pyrrolo[3,2-b]pyridine-7-carboxylic acid] yielded an IC50 of 1 to 10 µM.

`O=C(O)c1ccnc2cc(-c3nn(CC(F)(F)F)c4cc(Cl)ccc34)[nH]c12` [Example 19, 2-[6-chloro-1-(2,2,2-trifluoroethyl)-1H-indazol-3-yl]-1H-pyrrolo[3,2-b]pyridine-7-carboxylic acid] displayed an IC50 of 1 to 10 µM.

Consider `O=C(O)c1ccnc2cc(-c3nn(CCN4CCCC4)c4ccc(Cl)cc34)[nH]c12` [Example 20, 2-{5-chloro-1-[2-(pyrrolidin-1-yl)ethyl]-1H-indazol-3-yl}-1H-pyrrolo[3,2-b]pyridine-7-carboxylic acid], for which the IC50 was 0.1 to 1 µM.

Turning to `O=C(O)c1ccnc2cc(-c3nn(CCN4CCOCC4)c4ccc(F)cc34)[nH]c12` [Example 21, 2-{5-fluoro-1-[2-(morpholin-4-yl)ethyl]-1H-indazol-3-yl}-1H-pyrrolo[3,2-b]pyridine-7-carboxylic acid], the half-inhibitory concentration (IC50) is 1 to 10 µM.
